Assay results: PubChem BioAssay (NCI)
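Where inhibition never reached the appropriate level, the endpoint shown equals the highest concentration tested. Otherwise, values were interpolated linearly from a five-concentration, 48-hour dose response in 96-well plates. Definition used: TGI = concentration required for complete inhibition of growth.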

What was measured:
Experiment in all cases: DTP human tumour cell line panel, 48 h
NCI-H23 lung = test system: NCI-H23 lung
SK-MEL-2 melanoma = test system: SK-MEL-2 melanoma
DMS 114 small cell lung = test system: DMS 114 small cell lung
786-0 renal = test system: 786-0 renal
LXFL 529 NSCLC = test system: LXFL 529 NSCLC
MOLT-4 leukemia = test system: MOLT-4 leukemia
HOP-62 NSCLC = test system: HOP-62 NSCLC
HCT-15 colon = test system: HCT-15 colon
SN12C renal = test system: SN12C renal
NCI-H226 lung = test system: NCI-H226 lung
COLO 205 colon = test system: COLO 205 colon
SF-268 CNS = test system: SF-268 CNS
K-562 leukemia = test system: K-562 leukemia
NCI-H460 lung = test system: NCI-H460 lung
CCRF-CEM leukemia = test system: CCRF-CEM leukemia
KM12 colon = test system: KM12 colon
CAKI-1 renal = test system: CAKI-1 renal
M14 melanoma = test system: M14 melanoma
OVCAR-8 ovarian = test system: OVCAR-8 ovarian
A498 renal = test system: A498 renal
NCI-H522 lung = test system: NCI-H522 lung
SK-MEL-28 melanoma = test system: SK-MEL-28 melanoma
SNB-19 CNS = test system: SNB-19 CNS
OVCAR-3 ovarian = test system: OVCAR-3 ovarian
SNB-78 CNS = test system: SNB-78 CNS
SR leukemia = test system: SR leukemia
UACC-62 melanoma = test system: UACC-62 melanoma
UACC-257 melanoma = test system: UACC-257 melanoma
HCC-2998 colon = test system: HCC-2998 colon
OVCAR-4 ovarian = test system: OVCAR-4 ovarian
HT29 colon = test system: HT29 colon
U251 CNS = test system: U251 CNS
HCT-116 colon = test system: HCT-116 colon
HL-60(TB) leukemia = test system: HL-60(TB) leukemia
IGROV1 ovarian = test system: IGROV1 ovarian
SW-620 colon = test system: SW-620 colon
UO-31 renal = test system: UO-31 renal
LOX IMVI melanoma = test system: LOX IMVI melanoma
KM20L2 colon = test system: KM20L2 colon
RXF-631 renal = test system: RXF-631 renal
SF-539 CNS = test system: SF-539 CNS
A549 NSCLC = test system: A549 NSCLC
RPMI-8226 leukemia = test system: RPMI-8226 leukemia
DMS 273 small cell lung = test system: DMS 273 small cell lung
ACHN renal = test system: ACHN renal
SF-295 CNS = test system: SF-295 CNS
HOP-18 NSCLC = test system: HOP-18 NSCLC
SNB-75 CNS = test system: SNB-75 CNS
DLD-1 colon = test system: DLD-1 colon
XF 498 CNS = test system: XF 498 CNS
SK-OV-3 ovarian = test system: SK-OV-3 ovarian
MALME-3M melanoma = test system: MALME-3M melanoma
M19-MEL melanoma = test system: M19-MEL melanoma
RXF 393 renal = test system: RXF 393 renal
SK-MEL-5 melanoma = test system: SK-MEL-5 melanoma
EKVX NSCLC = test system: EKVX NSCLC
TK-10 renal = test system: TK-10 renal
HOP-92 NSCLC = test system: HOP-92 NSCLC

`COc1ccc2c(CCNC(=O)/C=C/c3ccccc3)c(C(C)=O)[nH]c2c1[N+](=O)[O-]` showed a TGI (NCI-H23 lung) of 58 µM, a TGI (SK-MEL-2 melanoma) of over 100 µM and a TGI (DMS 114 small cell lung) of over 100 µM. The TGI (786-0 renal) was over 100 µM, the TGI (LXFL 529 NSCLC) was over 100 µM and the TGI (MOLT-4 leukemia) was over 100 µM. For the same compound, the TGI (HOP-62 NSCLC) was 76.2 µM, the TGI (HCT-15 colon) was over 100 µM and the TGI (SN12C renal) was over 100 µM. The TGI (NCI-H226 lung) was 46.7 µM, the TGI (COLO 205 colon) was over 100 µM and the TGI (SF-268 CNS) was 9.08 µM. For the same compound, the TGI (K-562 leukemia) was over 100 µM, the TGI (NCI-H460 lung) was over 100 µM and the TGI (CCRF-CEM leukemia) was over 100 µM. For the same compound, the TGI (KM12 colon) was over 100 µM, the TGI (CAKI-1 renal) was 44.5 µM and the TGI (M14 melanoma) was over 100 µM. For the same compound, the TGI (OVCAR-8 ovarian) was over 100 µM, the TGI (A498 renal) was 76.5 µM and the TGI (NCI-H522 lung) was 18.9 µM. It also gave a TGI (SK-MEL-28 melanoma) of over 100 µM, a TGI (SNB-19 CNS) of over 100 µM and a TGI (OVCAR-3 ovarian) of over 100 µM. For the same compound, the TGI (SNB-78 CNS) was over 100 µM, the TGI (SR leukemia) was over 100 µM and the TGI (UACC-62 melanoma) was 36.1 µM. It also gave a TGI (UACC-257 melanoma) of over 100 µM, a TGI (HCC-2998 colon) of over 100 µM and a TGI (OVCAR-4 ovarian) of over 100 µM. It also gave a TGI (HT29 colon) of over 100 µM, a TGI (U251 CNS) of over 100 µM and a TGI (HCT-116 colon) of 87.2 µM. The TGI (HL-60(TB) leukemia) was over 100 µM, the TGI (IGROV1 ovarian) was 56.2 µM and the TGI (SW-620 colon) was over 100 µM. The TGI (UO-31 renal) was over 100 µM, the TGI (LOX IMVI melanoma) was 27.3 µM and the TGI (KM20L2 colon) was over 100 µM. For the same compound, the TGI (RXF-631 renal) was 28.4 µM, the TGI (SF-539 CNS) was 61 µM and the TGI (A549 NSCLC) was over 100 µM. The TGI (RPMI-8226 leukemia) was over 100 µM, the TGI (DMS 273 small cell lung) was 29.2 µM and the TGI (ACHN renal) was over 100 µM. For the same compound, the TGI (SF-295 CNS) was 12.7 µM.

In the case of `CCN(CC)c1ccc(N=C2C=C(Cl)C(=O)c3ncccc32)c(C)c1`, the TGI (NCI-H23 lung) is reported as 11.3 µM, the TGI (SK-MEL-2 melanoma) is reported as over 100 µM and the TGI (HOP-18 NSCLC) is reported as 9.75 µM. The TGI (DMS 114 small cell lung) was 8.19 µM, the TGI (SNB-75 CNS) was 88.3 µM and the TGI (DLD-1 colon) was 17 µM. The TGI (786-0 renal) was 12.2 µM, the TGI (XF 498 CNS) was 18.7 µM and the TGI (MOLT-4 leukemia) was 13.8 µM. It also gave a TGI (HOP-62 NSCLC) of 25 µM, a TGI (HCT-15 colon) of 20.8 µM and a TGI (SN12C renal) of 55.1 µM. For the same compound, the TGI (SK-OV-3 ovarian) was 67.9 µM, the TGI (COLO 205 colon) was 15.8 µM and the TGI (MALME-3M melanoma) was 10.5 µM. It also gave a TGI (K-562 leukemia) of 11.1 µM, a TGI (NCI-H460 lung) of 39 µM and a TGI (M19-MEL melanoma) of 68.5 µM. For the same compound, the TGI (CCRF-CEM leukemia) was over 100 µM, the TGI (CAKI-1 renal) was 12 µM and the TGI (M14 melanoma) was 8.31 µM. For the same compound, the TGI (OVCAR-8 ovarian) was over 100 µM, the TGI (RXF 393 renal) was 17.5 µM and the TGI (SK-MEL-5 melanoma) was 11.3 µM. It also gave a TGI (SK-MEL-28 melanoma) of 91 µM, a TGI (EKVX NSCLC) of 36.8 µM and a TGI (SNB-19 CNS) of 89.4 µM. For the same compound, the TGI (OVCAR-3 ovarian) was 5.04 µM, the TGI (SNB-78 CNS) was 43.4 µM and the TGI (UACC-62 melanoma) was 24.7 µM. For the same compound, the TGI (TK-10 renal) was 29.2 µM, the TGI (UACC-257 melanoma) was 7.29 µM and the TGI (OVCAR-4 ovarian) was 18.3 µM. For the same compound, the TGI (HT29 colon) was 30.2 µM, the TGI (U251 CNS) was 18 µM and the TGI (HCT-116 colon) was 11.6 µM. The TGI (HL-60(TB) leukemia) was 4.72 µM, the TGI (IGROV1 ovarian) was 32 µM and the TGI (SW-620 colon) was 17.3 µM. The TGI (UO-31 renal) was 41.6 µM, the TGI (LOX IMVI melanoma) was 26.9 µM and the TGI (KM20L2 colon) was 26.9 µM. The TGI (RXF-631 renal) was 35.3 µM, the TGI (SF-539 CNS) was 28 µM and the TGI (A549 NSCLC) was 48.5 µM. For the same compound, the TGI (RPMI-8226 leukemia) was 90.3 µM, the TGI (DMS 273 small cell lung) was 16.8 µM and the TGI (ACHN renal) was 11.1 µM. For the same compound, the TGI (SF-295 CNS) was 35.9 µM and the TGI (HOP-92 NSCLC) was 7.2 µM.
